Data reported in paper PMC5766581, “NF-κB inducing kinase is a therapeutic target for systemic lupus erythematosus” (Nature Communications, 2018).

Experiments:
[1] = test system: nuclear p52 (non-canonical NF-κB signaling); assay: High content nuclear p52 imaging, anti-LTβR-stimulated HeLa cells; type: cell-based, human; conditions: Homo sapiens, anti-LTβR induced, mean ± SD
Procedure: The HeLa cell line was used to define the cellular selectivity of NIK inhibitors toward inhibition of classical vs. non-classical NF-κB signaling using high content cellular imaging assays. For the nuclear translocation assay p52 (non-canonical NF-κB signaling), HeLa cells were treated with different concentrations of compounds previously diluted in DMSO (final [DMSO] = 0.2% in all wells) in DMEM medium (10% FBS, 2 mM Glutamine) and then stimulated with 300 ng/mL of an anti-lymphotoxin beta receptor antibody for 4.5 h. In the REL-A nuclear translocation assay, HeLa cells were incubated with compounds for 4 h 50 min before stimulating them with 2 ng/mL TNF (R&D Systems) for 10 min. Cells were fixed with 4% paraformaldehyde, permeabilized by adding 0.1% Triton X-100 in phosphate buffered saline, and then are incubated with either 2 μg/mL anti-p52 antibody or 400 ng/mL anti-REL-A (p65) antibody. Finally, the cells are incubated with an Alexa488-labeled secondary antibody (Invitrogen) and DRAQ5 DNA stain (Biostatus). Imaging was carried out using an Opera reader (Perkin Elmer) and data were analyzed with Acapella software (Perkin Elmer). The p52 or REL-A translocation into the nucleus is quantified by the ratio of the nuclear to cytoplasmic signal intensity.

Aurora_A = target: T1, Aurora_A (Homo sapiens, UniProt O14965); assay: SelectScreen kinase panel; type: biochemical
T1 construct: purchased Invitrogen / ThermoFisher SelectScreen
T1 sequence (O14965 whole entry): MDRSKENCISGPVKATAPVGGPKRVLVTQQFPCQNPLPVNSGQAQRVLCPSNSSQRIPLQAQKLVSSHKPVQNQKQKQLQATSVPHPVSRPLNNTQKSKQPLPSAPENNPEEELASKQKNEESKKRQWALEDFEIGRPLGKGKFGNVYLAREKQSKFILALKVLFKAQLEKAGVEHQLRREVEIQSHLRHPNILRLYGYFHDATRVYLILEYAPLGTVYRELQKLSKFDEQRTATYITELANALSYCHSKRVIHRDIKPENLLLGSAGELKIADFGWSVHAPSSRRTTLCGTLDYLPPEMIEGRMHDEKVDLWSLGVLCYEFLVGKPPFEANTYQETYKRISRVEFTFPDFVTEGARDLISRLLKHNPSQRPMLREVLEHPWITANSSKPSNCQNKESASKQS
How it was run: (§1)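 Invitrogen carries out the selectivity screen with its SelectScreen platform, applying either activity assays (Z′-LYTE peptide phosphorylation, Adapta ADP measurement) or a LanthaScreen ATP-pocket binding assay, per kinase. Results are averaged % inhibition.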

Aurora_B = target: T2, Aurora_B (Homo sapiens, UniProt Q96GD4); assay: SelectScreen kinase panel; type: biochemical
T2 construct: purchased Invitrogen / ThermoFisher SelectScreen
T2 sequence (Q96GD4 whole entry): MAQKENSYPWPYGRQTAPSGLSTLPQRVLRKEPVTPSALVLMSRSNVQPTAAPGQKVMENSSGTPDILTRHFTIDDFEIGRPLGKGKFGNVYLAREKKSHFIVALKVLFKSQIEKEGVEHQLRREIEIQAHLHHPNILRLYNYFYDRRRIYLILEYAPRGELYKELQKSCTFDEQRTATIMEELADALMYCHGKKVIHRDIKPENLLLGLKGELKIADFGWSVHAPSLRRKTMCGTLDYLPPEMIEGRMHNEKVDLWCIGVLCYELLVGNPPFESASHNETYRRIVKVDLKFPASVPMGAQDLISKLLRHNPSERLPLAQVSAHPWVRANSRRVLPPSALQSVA
How it was run: as §1

CDK2/CyclinA = target: T3, CDK2/CyclinA (Homo sapiens, UniProt P24941); assay: SelectScreen kinase panel; type: biochemical
T3 construct: purchased Invitrogen / ThermoFisher SelectScreen
How it was run: as §1

CaMKI = target: T4, CaMKI (Homo sapiens, UniProt Q14012); assay: SelectScreen kinase panel; type: biochemical
T4 construct: purchased Invitrogen / ThermoFisher SelectScreen
How it was run: as §1

EphA7 = target: T5, EphA7 (Homo sapiens, UniProt Q15375); assay: SelectScreen kinase panel; type: biochemical
T5 construct: purchased Invitrogen / ThermoFisher SelectScreen
How it was run: as §1

FAK = target: T6, FAK (Homo sapiens, UniProt Q05397); assay: SelectScreen kinase panel; type: biochemical
T6 construct: purchased Invitrogen / ThermoFisher SelectScreen
T6 sequence (Q05397 whole entry): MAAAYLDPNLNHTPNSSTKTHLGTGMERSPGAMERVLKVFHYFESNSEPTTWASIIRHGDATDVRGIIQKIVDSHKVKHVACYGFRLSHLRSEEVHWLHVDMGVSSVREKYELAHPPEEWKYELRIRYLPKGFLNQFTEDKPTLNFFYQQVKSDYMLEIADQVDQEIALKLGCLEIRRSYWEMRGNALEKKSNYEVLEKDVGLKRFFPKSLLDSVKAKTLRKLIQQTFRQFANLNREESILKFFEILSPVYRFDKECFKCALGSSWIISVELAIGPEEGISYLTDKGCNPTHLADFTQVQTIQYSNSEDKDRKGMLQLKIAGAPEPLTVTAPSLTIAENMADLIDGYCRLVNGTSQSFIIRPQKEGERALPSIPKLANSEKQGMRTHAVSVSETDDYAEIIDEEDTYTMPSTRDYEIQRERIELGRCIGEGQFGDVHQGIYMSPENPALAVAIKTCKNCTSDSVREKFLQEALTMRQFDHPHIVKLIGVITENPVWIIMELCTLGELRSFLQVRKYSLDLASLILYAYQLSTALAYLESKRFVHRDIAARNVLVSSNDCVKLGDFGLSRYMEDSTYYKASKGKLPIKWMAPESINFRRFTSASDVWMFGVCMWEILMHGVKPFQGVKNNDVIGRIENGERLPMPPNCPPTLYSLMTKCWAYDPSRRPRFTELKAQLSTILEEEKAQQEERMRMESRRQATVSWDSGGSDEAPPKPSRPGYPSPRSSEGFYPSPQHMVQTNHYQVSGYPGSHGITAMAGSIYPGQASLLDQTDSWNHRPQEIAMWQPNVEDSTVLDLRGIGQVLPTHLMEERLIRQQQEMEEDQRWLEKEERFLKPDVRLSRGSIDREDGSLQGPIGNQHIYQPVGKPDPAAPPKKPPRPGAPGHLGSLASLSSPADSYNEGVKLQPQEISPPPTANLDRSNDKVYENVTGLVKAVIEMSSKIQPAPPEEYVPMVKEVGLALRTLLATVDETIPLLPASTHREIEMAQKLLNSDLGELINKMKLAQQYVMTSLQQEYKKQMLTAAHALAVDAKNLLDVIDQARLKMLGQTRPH
How it was run: as §1

Flt3 = target: T7, Flt3 (Homo sapiens, UniProt P36888); assay: SelectScreen kinase panel; type: biochemical
T7 construct: purchased Invitrogen / ThermoFisher SelectScreen
How it was run: as §1

IGF1R = target: T8, IGF1R (Homo sapiens, UniProt P08069); assay: SelectScreen kinase panel; type: biochemical
T8 construct: purchased Invitrogen / ThermoFisher SelectScreen
How it was run: as §1

IKK_alpha = target: T9, IKK_alpha (Homo sapiens, UniProt O15111); assay: SelectScreen kinase panel; type: biochemical
T9 construct: purchased Invitrogen / ThermoFisher SelectScreen
How it was run: as §1

ITK = target: T10, ITK (Homo sapiens, UniProt Q08881); assay: SelectScreen kinase panel; type: biochemical
T10 construct: purchased Invitrogen / ThermoFisher SelectScreen
T10 sequence (Q08881 whole entry): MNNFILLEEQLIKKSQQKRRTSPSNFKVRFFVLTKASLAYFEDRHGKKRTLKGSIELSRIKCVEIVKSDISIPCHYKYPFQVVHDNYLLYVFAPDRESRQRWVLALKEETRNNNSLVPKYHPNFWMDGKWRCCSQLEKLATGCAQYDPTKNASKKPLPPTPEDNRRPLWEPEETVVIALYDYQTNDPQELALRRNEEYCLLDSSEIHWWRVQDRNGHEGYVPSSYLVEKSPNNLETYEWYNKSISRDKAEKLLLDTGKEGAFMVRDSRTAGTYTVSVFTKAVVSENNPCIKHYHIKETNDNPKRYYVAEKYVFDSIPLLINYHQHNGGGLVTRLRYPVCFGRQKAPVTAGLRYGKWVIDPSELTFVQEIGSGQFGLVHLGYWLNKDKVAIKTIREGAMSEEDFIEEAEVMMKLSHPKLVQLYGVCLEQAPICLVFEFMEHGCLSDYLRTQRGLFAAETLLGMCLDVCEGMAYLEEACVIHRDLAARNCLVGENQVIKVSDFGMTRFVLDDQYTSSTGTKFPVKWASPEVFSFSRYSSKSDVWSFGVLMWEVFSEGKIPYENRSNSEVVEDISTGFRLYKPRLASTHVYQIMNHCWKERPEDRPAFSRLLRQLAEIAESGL
How it was run: as §1

JAK3 = target: T11, JAK3 (Homo sapiens, UniProt P52333); assay: SelectScreen kinase panel; type: biochemical
T11 construct: purchased Invitrogen / ThermoFisher SelectScreen
How it was run: as §1

JNK1_alpha1 = target: T12, JNK1_alpha1 (Homo sapiens, UniProt P45983); assay: SelectScreen kinase panel; type: biochemical
T12 construct: purchased Invitrogen / ThermoFisher SelectScreen
How it was run: as §1

Lck = target: T13, Lck (Homo sapiens, UniProt P06239); assay: SelectScreen kinase panel; type: biochemical
T13 construct: purchased Invitrogen / ThermoFisher SelectScreen
How it was run: as §1

Lyn = target: T14, Lyn (Homo sapiens, UniProt P07948); assay: SelectScreen kinase panel; type: biochemical
T14 construct: purchased Invitrogen / ThermoFisher SelectScreen
T14 sequence (P07948 whole entry): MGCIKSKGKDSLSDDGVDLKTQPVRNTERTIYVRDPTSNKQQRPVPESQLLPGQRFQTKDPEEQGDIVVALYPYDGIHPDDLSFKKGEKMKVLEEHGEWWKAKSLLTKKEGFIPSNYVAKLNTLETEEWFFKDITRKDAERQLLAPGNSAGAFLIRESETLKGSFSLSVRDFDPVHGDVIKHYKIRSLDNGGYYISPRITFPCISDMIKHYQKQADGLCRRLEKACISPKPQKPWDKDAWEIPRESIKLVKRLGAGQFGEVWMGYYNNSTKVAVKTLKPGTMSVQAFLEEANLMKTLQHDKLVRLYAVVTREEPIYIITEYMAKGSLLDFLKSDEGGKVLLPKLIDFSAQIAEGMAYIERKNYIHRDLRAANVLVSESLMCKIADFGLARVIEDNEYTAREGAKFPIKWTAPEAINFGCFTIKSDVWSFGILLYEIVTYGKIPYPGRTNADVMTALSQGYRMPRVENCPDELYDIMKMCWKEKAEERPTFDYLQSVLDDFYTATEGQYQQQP
How it was run: as §1

MAPKAPK2 = target: T15, MAPKAPK2 (Homo sapiens, UniProt P49137); assay: SelectScreen kinase panel; type: biochemical
T15 construct: purchased Invitrogen / ThermoFisher SelectScreen
T15 sequence (P49137 whole entry): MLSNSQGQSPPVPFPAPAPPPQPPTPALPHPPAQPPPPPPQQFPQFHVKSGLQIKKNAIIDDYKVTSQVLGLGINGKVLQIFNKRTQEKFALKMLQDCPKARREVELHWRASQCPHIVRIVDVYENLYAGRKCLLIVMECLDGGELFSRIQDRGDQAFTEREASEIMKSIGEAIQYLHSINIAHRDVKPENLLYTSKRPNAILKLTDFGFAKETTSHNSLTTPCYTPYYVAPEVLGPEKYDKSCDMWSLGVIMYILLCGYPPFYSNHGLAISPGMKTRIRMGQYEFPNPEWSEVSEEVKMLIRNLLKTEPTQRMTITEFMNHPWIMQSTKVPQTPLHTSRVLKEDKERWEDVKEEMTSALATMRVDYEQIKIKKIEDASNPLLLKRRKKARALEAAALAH
How it was run: as §1

MST1 = target: T16, MST1 (Homo sapiens, UniProt Q13043); assay: SelectScreen kinase panel; type: biochemical
T16 construct: purchased Invitrogen / ThermoFisher SelectScreen
T16 sequence (Q13043 whole entry): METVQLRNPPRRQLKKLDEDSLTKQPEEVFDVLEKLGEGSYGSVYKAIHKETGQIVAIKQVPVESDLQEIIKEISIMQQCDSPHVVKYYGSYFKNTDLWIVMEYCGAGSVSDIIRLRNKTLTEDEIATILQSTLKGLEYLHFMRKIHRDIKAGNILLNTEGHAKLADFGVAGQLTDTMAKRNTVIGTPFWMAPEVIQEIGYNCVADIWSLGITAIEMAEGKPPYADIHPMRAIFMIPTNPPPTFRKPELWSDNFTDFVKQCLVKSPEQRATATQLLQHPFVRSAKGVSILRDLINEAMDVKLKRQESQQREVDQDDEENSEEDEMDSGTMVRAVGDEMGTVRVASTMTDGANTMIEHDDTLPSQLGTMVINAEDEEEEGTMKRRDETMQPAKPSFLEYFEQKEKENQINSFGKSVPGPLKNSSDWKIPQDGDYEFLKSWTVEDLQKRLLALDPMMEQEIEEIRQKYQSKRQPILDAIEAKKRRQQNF
How it was run: as §1

MuSK = target: T17, MuSK (Homo sapiens, UniProt O15146); assay: SelectScreen kinase panel; type: biochemical
T17 construct: purchased Invitrogen / ThermoFisher SelectScreen
T17 sequence (O15146 24-869): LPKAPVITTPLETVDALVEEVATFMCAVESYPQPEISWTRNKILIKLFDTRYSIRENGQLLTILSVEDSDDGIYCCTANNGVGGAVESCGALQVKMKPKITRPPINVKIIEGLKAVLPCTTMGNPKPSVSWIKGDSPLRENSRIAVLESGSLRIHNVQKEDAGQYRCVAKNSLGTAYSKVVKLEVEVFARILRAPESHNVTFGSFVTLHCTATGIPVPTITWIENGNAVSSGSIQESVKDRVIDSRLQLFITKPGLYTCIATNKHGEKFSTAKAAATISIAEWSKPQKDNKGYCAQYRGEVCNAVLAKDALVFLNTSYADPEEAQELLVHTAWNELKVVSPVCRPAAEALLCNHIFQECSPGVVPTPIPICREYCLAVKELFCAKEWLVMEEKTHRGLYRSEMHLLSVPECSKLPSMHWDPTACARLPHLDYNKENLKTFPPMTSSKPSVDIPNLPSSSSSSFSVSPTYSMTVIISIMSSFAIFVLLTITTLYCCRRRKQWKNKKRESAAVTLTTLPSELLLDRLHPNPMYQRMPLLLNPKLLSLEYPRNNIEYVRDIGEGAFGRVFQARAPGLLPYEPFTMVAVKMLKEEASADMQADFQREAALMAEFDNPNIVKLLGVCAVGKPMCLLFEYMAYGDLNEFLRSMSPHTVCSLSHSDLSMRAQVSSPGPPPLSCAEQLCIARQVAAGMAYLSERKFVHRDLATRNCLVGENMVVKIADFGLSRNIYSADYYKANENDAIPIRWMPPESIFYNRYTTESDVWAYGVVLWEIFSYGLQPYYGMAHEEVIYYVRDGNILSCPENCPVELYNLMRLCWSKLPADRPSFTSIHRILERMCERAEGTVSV
How it was run: as §1

P38_gamma = target: T18, P38_gamma (Homo sapiens, UniProt P53778); assay: SelectScreen kinase panel; type: biochemical
T18 construct: purchased Invitrogen / ThermoFisher SelectScreen
How it was run: as §1

PKD2 = target: T19, PKD2 (Homo sapiens, UniProt Q9BZL6); assay: SelectScreen kinase panel; type: biochemical
T19 construct: purchased Invitrogen / ThermoFisher SelectScreen
How it was run: as §1

ROCK1 = target: T20, ROCK1 (Homo sapiens, UniProt Q13464); assay: SelectScreen kinase panel; type: biochemical
T20 construct: purchased Invitrogen / ThermoFisher SelectScreen
How it was run: as §1

For `COc1cc(C(N)=O)nc(-c2cccc(C#C[C@]3(O)CCN(C)C3=O)c2)c1` [NIK SMI1], the IC50 [1] was 70 nM, the inhibition at 1 µM (Aurora_A) was 1% and the inhibition at 1 µM (Aurora_B) was 24.5%. It also gave an inhibition at 1 µM (CDK2/CyclinA) of -1.5%, an inhibition at 1 µM (CaMKI) of 18.3% and an inhibition at 1 µM (EphA7) of 5.1%. It also gave an inhibition at 1 µM (FAK) of 10.5%, an inhibition at 1 µM (Flt3) of 13.5% and an inhibition at 1 µM (IGF1R) of 8.5%. The inhibition at 1 µM (IKK_alpha) was 3.1%, the inhibition at 1 µM (ITK) was -3% and the inhibition at 1 µM (JAK3) was 15%. For the same molecule, the inhibition at 1 µM (JNK1_alpha1) was 5.6%, the inhibition at 1 µM (Lck) was 0.5% and the inhibition at 1 µM (Lyn) was 2.5%. For the same molecule, the inhibition at 1 µM (MAPKAPK2) was -5%, the inhibition at 1 µM (MST1) was 11.5% and the inhibition at 1 µM (MuSK) was 6%. For the same molecule, the inhibition at 1 µM (P38_gamma) was 14%, the inhibition at 1 µM (PKD2) was 0% and the inhibition at 1 µM (ROCK1) was 9.5%.
